{
  "source": "ChEMBL document CHEMBL1154579",
  "about": "“Novel cytotoxic diterpenes from Casearia arborea” (J Nat Prod, 2000)",
  "data": [
    {"test_system": "LOX IMVI", "experiment": "Cytotoxicity against human LOX IMVI cells after 2 days", "type": "functional, cell-based", "conditions": "48 h", "units": {"IC50": "nM"}, "values": [
      {"smiles": "C=C/C(C)=C/C[C@]1(C)[C@H](C)CC[C@@]23C(=C[C@H](OC(=O)c4ccc(O)cc4)C[C@@H]12)[C@@H](OC(C)=O)O[C@H]3OC(C)=O", "note": "[CASEARBORIN A]", "IC50": 290},
      {"smiles": "C=C/C(C)=C/C[C@]1(C)[C@H](C)CC[C@@]23C(=C[C@H](OC(=O)c4ccc(O)c(OC)c4)C[C@@H]12)[C@@H](OC(C)=O)O[C@H]3OC(C)=O", "note": "[CASEARBORIN B]", "IC50": 290},
      {"smiles": "C=C/C(C)=C/C[C@]1(C)[C@H](C)C[C@H](OC(=O)c2ccc(O)cc2)[C@@]23C(=C[C@H](O)C[C@@H]12)[C@@H](OC(C)=O)O[C@H]3OC(C)=O", "note": "[CASEARBORIN C]", "IC50": 290},
      {"smiles": "C=C/C(C)=C/C[C@]1(C)[C@H](C)C[C@H](O)[C@@]23C(=C[C@H](OC(=O)c4ccc(O)cc4)C[C@@H]12)[C@@H](OC(C)=O)O[C@H]3OC(C)=O", "note": "[CASEARBORIN D]", "IC50": 290},
      {"smiles": "C=C/C(C)=C/C[C@]1(C)[C@H](C)C[C@H](OC(=O)c2ccc(O)cc2)[C@@]23C(=C[C@H](OC(C)=O)C[C@@H]12)[C@@H](OC(C)=O)O[C@H]3OC(C)=O", "note": "[CASEARBORIN E]", "IC50": 290}
    ]},
    {"test_system": "SF-539", "experiment": "Cytotoxicity against human SF539 cells after 2 days", "type": "functional, cell-based", "conditions": "SF-539, 48 h", "units": {"IC50": "nM"}, "values": [
      {"smiles": "C=C/C(C)=C/C[C@]1(C)[C@H](C)CC[C@@]23C(=C[C@H](OC(=O)c4ccc(O)cc4)C[C@@H]12)[C@@H](OC(C)=O)O[C@H]3OC(C)=O", "note": "[CASEARBORIN A]", "IC50": 290},
      {"smiles": "C=C/C(C)=C/C[C@]1(C)[C@H](C)CC[C@@]23C(=C[C@H](OC(=O)c4ccc(O)c(OC)c4)C[C@@H]12)[C@@H](OC(C)=O)O[C@H]3OC(C)=O", "note": "[CASEARBORIN B]", "IC50": 290},
      {"smiles": "C=C/C(C)=C/C[C@]1(C)[C@H](C)C[C@H](OC(=O)c2ccc(O)cc2)[C@@]23C(=C[C@H](O)C[C@@H]12)[C@@H](OC(C)=O)O[C@H]3OC(C)=O", "note": "[CASEARBORIN C]", "IC50": 290},
      {"smiles": "C=C/C(C)=C/C[C@]1(C)[C@H](C)C[C@H](O)[C@@]23C(=C[C@H](OC(=O)c4ccc(O)cc4)C[C@@H]12)[C@@H](OC(C)=O)O[C@H]3OC(C)=O", "note": "[CASEARBORIN D]", "IC50": 290},
      {"smiles": "C=C/C(C)=C/C[C@]1(C)[C@H](C)C[C@H](OC(=O)c2ccc(O)cc2)[C@@]23C(=C[C@H](OC(C)=O)C[C@@H]12)[C@@H](OC(C)=O)O[C@H]3OC(C)=O", "note": "[CASEARBORIN E]", "IC50": 290}
    ]}
  ]
}
